According to US9266872B2, “2-hydroxyarylamide derivative or pharmaceutically acceptable salt thereof, preparation method thereof, and pharmaceutical composition for preventing or treating cancer containing same as active ingredient” (KOREA RESEARCH INSTITUTE OF BIOSCIENCE AND BIOTECHNOLOGY, priority 2011, dated 2016):
Read-outs that look alike come from different tables or passages of the source.

What was measured:
TMPRSS4 serine protease = target: T1, TMPRSS4 serine protease (Homo sapiens, UniProt Q9NRS4); test: Inhibitory effect on TMPRSS4 serine protease activity using peptide substrate; format: biochemical; settings: kallikrein peptide substrate 100 μM, DMSO negative control; for Intracellular protease activity Inhibition % 10 uM / inhibition at 10 µM: 10 uM compound; for inhibition at 10 µM: read-out: Intracellular protease activity Inhibition % 10 uM; for inhibition at 30 µM / Intracellular protease activity Inhibition % 30 uM: 30 uM compound; for inhibition at 30 µM: read-out: Intracellular protease activity Inhibition % 30 uM; for inhibition at 100 µM: 100 uM compound, read-out: Intracellular protease activity Inhibition % 100 uM
T1 construct: TMPRSS4 serine protease domain (205th Val˜437th Leu) was cloned in pET21b/NdeI-XhoI; inferred from pET21b XhoI cloning and Ni-NTA purification) (C); made in house; host or cells: E. coli BL21 (DE3)
Protocol: TMPRSS4 serine protease domain (205th Val˜437th Leu) was cloned in pET21b/NdeI-XhoI, which was introduced in E. coli BL21 (DE3). At this time, FlagX2-enterokinase cleavage site ([…]; total 15 amino acids) was inserted in N-terminal of TMPRSS4 serine protease domain as shown in FIG. 1. The forward and reverse primers for PCR used for the cloning were presented by SEQ. ID. NO: 1 and NO: 2.
The cells were cultured in 10 ml of LB containing ampicillin at 37° C. overnight. IL of LB+ampicillin was added thereto, followed by further culture until OD reached 0.6˜0.8. 0.1 mM IPTG was added thereto, followed by further culture for 16 hours. Cell pellet was obtained, purified by Ni-NTA (Qiagen), and dialyzed. TMPRSS4 serine protease (pro-form) labeled with 2 mg of 2Xflag-enterokinase cleavage site was conjugated to Ni-NTA resin (4°, overnight). Enterokinase (NEB) was treated thereto at the concentration of 0.0002%/w/w at room temperature for 5 hours. The sample was washed, eluted with 50 mM imidazole in 20 mM of sodium phosphate buffer, and then dialyzed.
The protein activity was evaluated by measuring fluorescence shown during hydrolysis of the peptide. […] Reaction was induced after adding 100 μM of the peptide substrate into reaction buffer (50 mM Tris-HCl (pH 8.0), 10 mM CaCl2, 1 μM ZnCl2). Then, fluorescence was measured at 5 minutes interval (excitation 385 nm, emission 455 nm).
Then, fluorescence (excitation 385 nm/emission 455 nm) was measured at 5 minutes interval for 150 minutes. […] Dimethylsulfoxide (DMSO) was used as the negative control.

[1] = tested on: TMPRSS4 over-expressing colorectal cancer cell line SW480; test: Inhibitory effect on infiltration of cancer cells over-expressing TMPRSS4 (matrigel trans-well); format: cell-based; settings: Homo sapiens, read-out: Inhibition rate of target-expressing colorectal cancer cell activity (%, 0.1~2 uM)
Protocol: The cells were distributed in a 6-well plate at the density of 3×10^5 cells/well, followed by transfection. 48 hours later, the medium was replaced with a selection medium (800 μg/ml G418 medium). G418-resistant clone was separated, followed by culture for 2 weeks, during which selection was performed.
The cancer cell line constructed in step 1 was distributed in a 24-well trans-well plate (8 μm pore size; Costar, USA) whose porous membrane was coated with 100 μl of matrigel (BD Biosciences, USA) diluted with serum-free medium at the concentration of 250 μg/ml, which stood at room temperature for 1 hour for solidification. Lower chamber of the trans-well plate was coated with 100 μl of collagen type I (Sigma) at the concentration of 20 μg/ml. […] While culturing the cells in a 37, 5% CO2 incubator for 48 hours, cell migration from the upper chamber to lower chamber was allowed. […] The excessive crystal violet solution was washed away with distilled water. The migrated cell number was counted from 5 randomly selected areas (×200). The experiment was repeated at least twice under the same condition, and the representative result was presented.
The inhibitory effect of each compound on the infiltration of TMPRSS4 over-expressing colorectal cancer cell line SW480 was calculated by Mathematical Formula 1, which presents the number of infiltrated cells with % by the number of infiltrated cells in the negative control treated with DMSO. Infiltration Inhibition Rate (%)=100−Infiltrated cell number with the treatment of each compound/Infiltrated cell number with the treatment of DMSO×100 [Mathematical Formula 1]

[2] = SW480 over-expressing TMPRSS4, 48 hours
[3] = 0.8 uM, SW480 over-expressing TMPRSS4, 48 hours

T1 sequence (Q9NRS4 205-437): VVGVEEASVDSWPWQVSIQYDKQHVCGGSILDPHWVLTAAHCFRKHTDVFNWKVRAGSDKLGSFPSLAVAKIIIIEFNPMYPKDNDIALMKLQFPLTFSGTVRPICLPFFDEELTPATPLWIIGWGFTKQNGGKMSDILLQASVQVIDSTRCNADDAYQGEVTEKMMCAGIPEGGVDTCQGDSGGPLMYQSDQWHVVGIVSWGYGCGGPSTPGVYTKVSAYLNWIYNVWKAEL

Row | SMILES | Intracellular protease activity Inhibition % 10 uM (TMPRSS4 serine protease) [%] | inhibition at 10 µM (TMPRSS4 serine protease) [%] | inhibition at 30 µM (TMPRSS4 serine protease) [%] | inhibition at 100 µM (TMPRSS4 serine protease) [%] | inhibition at 0.1 µM [1, 2] [%] | also measured
1 | O=C(Nc1cc(C(F)(F)F)cc(C(F)(F)F)c1)c1cc(Cl)ccc1O [Example 1, N-(3,5-bis(trifluoromethyl)phenyl)-5-chloro-2-hydroxybenzamide] | 64 | 51 to 100 | 96 | 100 |  | inhibition at 0.8 µM ([1]; SW480, 48 h): 76%
2 | O=C(Nc1nc(-c2ccccc2)cs1)c1cc(Cl)ccc1O [Example 53, 5-chloro-2-hydroxy-N-(4-phenylthiazole-2-yl)benzamide] |  |  | 91 | 98 | 34 | inhibition at 1 µM ([1]; 1 uM, SW480 over-expressing TMPRSS4, 48 hours): 56%
3 | O=C(Nc1ccc(C(F)(F)F)cc1[N+](=O)[O-])c1cc(Cl)ccc1O [Example 36, 5-chloro-2-hydroxy-N-(2-nitro-4-trifluoromethyl-phenyl)-benzamide] | 53 | 51 to 100 |  |  |  | inhibition at 0.8 µM [1, 3]: 76%
4 | N#Cc1ccc(NC(=O)c2cc(Cl)ccc2O)nc1 [Example 37, 5-chloro-N-(5-cyano-pyridine-2-yl)-2-hydroxy-benzamide] |  | 26 | 47 to 100 |  |  | Intracellular protease activity Inhibition % 30 uM (TMPRSS4 serine protease): 63%; inhibition at 5 µM ([1]; 5 uM, SW480 over-expressing TMPRSS4, 48 hours): 44%
5 | N#Cc1ccc(NC(=O)c2cc(Cl)ccc2O)cc1C(F)(F)F [Example 19, 5-chloro-N-(4-cyano-3-(trifluoromethyl)phenyl)-2-hydroxybenzamide] |  |  | 88 | 100 |  | inhibition at 2 µM ([1]; SW480, 48 h): 81%
6 | O=C(Nc1ccc(Cl)c(C(F)(F)F)c1)c1cc(Cl)ccc1O [Example 32, 5-chloro-N-(4-chloro-3-(trifluoromethyl)phenyl)-2-hydroxybenzamide] | 71 | 51 to 100 | 95 | 99 |  | inhibition at 0.8 µM [1, 3]: 68%
7 | O=C(Nc1cc(C(F)(F)F)cc(C(F)(F)F)c1)c1cc([N+](=O)[O-])ccc1O [Example 55, N-(3,5-bis(trifluoromethyl)phenyl)-2-hydroxy-5-nitrobenzamide] |  | 33 | 78 |  | 26 | 
8 | O=C(Nc1cc(C(F)(F)F)c(Br)c(C(F)(F)F)c1)c1cc(Cl)ccc1O [Example 65, N-(4-bromo-3,5-bis(trifluoromethyl)phenyl)-5-chloro-2-hydroxybenzamide] | 58 | 51 to 100 |  |  | 53 | Intracellular protease activity Inhibition % 30 uM (TMPRSS4 serine protease): 85%
9 | O=C(Nc1cc(C(F)(F)F)cc(C(F)(F)F)c1)c1cc2ccccc2cc1O [Example 8, N-(3,5-bis(trifluoromethyl)phenyl)-2-hydroxy-3-naphthaamide] | 58 | 51 to 100 | 96 |  |  | inhibition at 0.8 µM [1, 3]: 72%
10 | O=C(Nc1nnc(C(F)(F)F)s1)c1cc(Cl)ccc1O [Example 28, 5-chloro-2-hydroxy-N-(5-trifluoromethyl-[1,3,4]thiadiazole-2-yl)-benzamide] |  |  | 75 | 100 |  | inhibition at 2 µM ([1]; 2 uM, SW480 over-expressing TMPRSS4, 48 hours): 52%
11 | O=C(Nc1cc(Br)cc(C(F)(F)F)c1)c1cc(Cl)ccc1O [Example 22, N-(3-bromo-5-(trifluoromethyl)phenyl)-5-chloro-2-hydroxybenzamide] | 64 | 51 to 100 | 100 | 100 | 43 | 
